The text below walks through data of patent US11414385B2, “Compounds and methods for treating, detecting, and identifying compounds to treat apicomplexan parasitic diseases” (The University of Chicago, priority 2015, dated 2022).

The Papp A→B is the apparent permeability from the apical to the basolateral side of a cell layer. The low end stands for slow passage, the high end for fast passage. Usually efflux ratio stands for the permeability from basolateral to apical divided by that in the opposite direction, in the common usage. The term kinetic solubility denotes the concentration staying in solution when a stock, usually in DMSO, is diluted into the medium. The solubility is the concentration that dissolves in the medium under given conditions.

One data set in a line: in vitro. The format is in vitro ADME. The settings on record: dog, MDCK-MDR1.
For another data set, the system named is MDR1. The experiment in a line: in vitro. Format: in vitro ADME. To be noted: dog, MDCK-MDR1, MDCK-MDR1 Efflux Ratio.
The nature of data set [1]: Aqueous kinetic solubility pH 7.4. Format: physicochemical. The settings on record: for solubility kinetic: PBS pH 7.4.
The subject of data set [2] is T. gondii tachyzoites (RH-YFP strain). The experiment in a line: In vitro challenge assay for Toxoplasma tachyzoites (RH-YFP in HFF, fluorescence). The format is cell-based, Toxoplasma gondii. A digest of the protocol: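 Confluent HFF monolayers infected with 3200 RH-YFP tachyzoites for 1-2 h, then compounds added (screen at 10 μM-10 nM; follow-up 1 μM-31.25 nM) and incubated 72 h at 37 °C. YFP fluorescence served as the measure of parasite burden; IC50 by graphical analysis.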

A short description of data set [3]: Microsomal metabolic stability, human. Format: in vitro ADME. The settings on record: for half-life: human, liver microsomes. (Liver microsomes are a subcellular fraction often used to study metabolism.)
Where [4] appears, read: PBS, pH 7.4, aqueous buffer, kinetic from dmso stock.
The mark [5] stands for this setting: Toxoplasma gondii, RH-YFP, read-out: Tachy IC50.

Converted amounts (≈) assume the structure as drawn. Like-named read-outs stand apart in the source and are kept apart here.

In “in vitro”, `Cc1[nH]c2c(c(=O)c1-c1ccc(Oc3ccccc3)cc1)CCCC2` [MJM170] returned a Papp A→B of 32.1 ×10⁻⁶ cm/s. Further, the efflux ratio with MDR1 was less than 1.5. The figures for the solubility (kinetic) in data set [1] and in data set [1] (setting [4]) were 1.97 µM (≈ 0.653 µg/mL) and 2 µM (≈ 0.663 µg/mL), respectively. In data set [1] (aqueous buffer, kinetic from dmso stock, 100 mM Phosphate Buffer (pH 7.4)), this molecule returned a solubility of 1.97 µM (≈ 0.653 µg/mL). Besides, in data set [1] (relative to ELQ 271), the “improved aqueous kinetic solubility (pH 7.4) over ELQ 271” value is reported as 10 fold. For the same molecule, the IC50 in data set [2] (Toxoplasma gondii, RH-YFP strain, read-out: T. gondii Tachyzoite IC50) worked out at 30 nM; in data set [2] (setting [5]), 30 nM. Further, the “reduction of RH YFP tachyzoites in tissue culture” value in data set [2] (low nanoM levels) was “markedly reduces RH YFP tachyzoites”. Also, in data set [3], the “Human microsomal stability T1/2” value was 2.438 h. In addition, the half-life in data set [3] (read-out: Human liver microsomes T1/2) was 2.44 h; in data set [3] (read-out: Human microsomal stability T1/2), 2.43 h.

Consider `Cc1[nH]c2c(c(=O)c1-c1ccc(Oc3ccc(OC(F)(F)F)cc3)cc1)CCCC2` [JAG21, 2-methyl-3-(4-(4-(trifluoromethoxy)phenoxy)phenyl)-5,6,7,8-tetrahydroquinolin-4(1H)-one], for which the Papp A→B in the data set “in vitro” is more than 10 ×10⁻⁶ cm/s. Moreover, the efflux ratio in the data set with MDR1 is less than 1.5. For the same molecule, the solubility (kinetic) in data set [1] (setting [4]) was determined as 7 µM (≈ 2.91 µg/mL). In addition, the IC50 in data set [2] (Toxoplasma gondii, read-out: IC50 against tachyzoites / active infection) was found to be 188 nM; in data set [2] (setting [5]), 90 nM. Besides, the IC90 in data set [2] (Toxoplasma gondii, read-out: IC 90 against Toxoplasma gondii tachyzoites) was less than 125 nM. In data set [3], the “Human liver microsomes T1/2” value is “∞”. Moreover, the “remaining after 45 mins in human liver microsomes” value in data set [3] (45 mins) is more than 99%.
